Assay results published in patent US20250059188A1, “ARYLSULPHONAMIDE COMPOUNDS” (Anaxis Pharma Pty Ltd, priority 2021, published 2025).

Experiments:
U937 cells = assay: Counter screen: U937 cell viability without TSQ cocktail (off-target effect); parameters: species or system human; conditions: Homo sapiens, U-937, compound without TSQ cocktail, read-out: Off-target effect (IC50 cell-based assay)
Method in brief: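 Off-target viability counter screen: compounds titrated 36 μM down 1:3 over 10 points (0.3% DMSO) on 20,000 U937 cells/well, no TNF/Smac mimetic/Q-VD-OPh added, 48 h incubation. ATP-based CellTiter-Glo luminescence, four-parameter logistic IC50.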

[1] = system: Immortalised Mouse Dermal Fibroblasts (MDFs); assay: Inhibition of TSI induced necroptosis in mouse dermal fibroblasts (CellTitre-Glo); conditions: Mus musculus, Fibroblast, 3 h, MDF cells, TSI cocktail (TNF, Smac mimetic, IDN-6556), read-out: Inhibition of TSI-induced necroptosis (IC50 cell-based assay) in MDF
Method in brief: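 Immortalised MDFs (2200 cells/well, DMEM + 7.4% FBS) pretreated 30 min with compound (36 μM top, 1:3, 10 points, 0.3% DMSO), then 3 h with TNF 100 ng/ml, Smac mimetic 500 nM and IDN-6556 10 μM at 37 °C. Viability by CellTiter-Glo luminescence; IC50 from 4-parameter logistic fit.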

## COCCn1cc(-c2cnc(N)c3c(-c4ccc(NS(=O)(=O)C(F)F)c(O[C@@H](C)c5ccc(F)cc5)c4)nn(C)c23)cn1 [Compound 29, (S)-N-(4-(4-amino-7-(1-(2-methoxyethyl)-1H-pyrazol-4-yl)-1-methyl-1H-pyrazolo[4,3-c]pyridin-3-yl)-2-(1-(4-fluorophenyl)ethoxy)phenyl)-1,1-difluoromethanesulfonamide]
U937 cells
  IC50: > 10 µM
[1]
  IC50: 1 to 10 µM

## CC(C)N(C)C(=O)C(C)n1cc(-c2cnc(N)c3c(-c4ccc(NS(=O)(=O)C(F)F)c(O[C@@H](C)c5ccc(F)cc5)c4)nn(C)c23)cn1 (stereo partly drawn) [Compound 81, 2-(4-(4-amino-3-(4-((difluoromethyl)sulfonamido)-3-((S)-1-(4-fluorophenyl)ethoxy)phenyl)-1-methyl-1H-pyrazolo[4,3-c]pyridin-7-yl)-1H-pyrazol-1-yl)-N-isopropyl-N-methylpropanamide]
U937 cells
  IC50: > 10 µM
[1]
  IC50: 1 to 10 µM

## C[C@@H](Oc1cc(-c2nn(C)c3c(-c4cnn(C5CCOCC5)c4)cnc(N)c23)ccc1NS(=O)(=O)C(F)F)c1ccc(F)cc1 [Compound 121, (R)-N-(4-(4-amino-1-methyl-7-(1-(tetrahydro-2H-pyran-4-yl)-1H-pyrazol-4-yl)-1H-pyrazolo[4,3-c]pyridin-3-yl)-2-(1-(4-fluorophenyl)ethoxy)phenyl)-1,1-difluoromethanesulfonamide]
U937 cells
  IC50: > 10 µM
[1]
  IC50: 1 to 10 µM

## C[C@H](Oc1cc(-c2nn(C)c3c(-c4cnn(C5CCC(F)(F)CC5)c4)cnc(N)c23)ccc1NS(=O)(=O)C(F)F)c1ccc(F)cc1 [Compound 146, (S)-N-(4-(4-amino-7-(1-(4,4-difluorocyclohexyl)-1H-pyrazol-4-yl)-1-methyl-1H-pyrazolo[4,3-c]pyridin-3-yl)-2-(1-(4-fluorophenyl)ethoxy)phenyl)-1,1-difluoromethanesulfonamide]
U937 cells
  IC50: > 10 µM
[1]
  IC50: 1 to 10 µM

## C[C@H](Oc1cc(-c2nn(C)c3c(-c4cnn(C5CCOCC5)c4)cnc(N)c23)ccc1NS(=O)(=O)C(F)F)c1ccc(F)cc1 [Compound 19, (S)-N-(4-(4-amino-1-methyl-7-(1-(tetrahydro-2H-pyran-4-yl)-1H-pyrazol-4-yl)-1H-pyrazolo[4,3-c]pyridin-3-yl)-2-(1-(4-fluorophenyl)ethoxy)phenyl)-1,1-difluoromethanesulfonamide]
U937 cells
  IC50: > 10 µM
[1]
  IC50: 0.1 to 1 µM

## C[C@H](Oc1cc(-c2nn(C)c3c(C#CC4CCNCC4)cnc(N)c23)ccc1NS(=O)(=O)C(F)F)c1ccc(F)cc1 [Compound 79, (S)—N-(4-(4-amino-1-methyl-7-(piperidin-4-ylethynyl)-1H-pyrazolo[4,3-c]pyridin-3-yl)-2-(1-(4-fluorophenyl)ethoxy)phenyl)-1,1-difluoromethanesulfonamide]
U937 cells
  IC50: > 10 µM
[1]
  IC50: 1 to 10 µM

## CC1CN(C)CC(C)C1n1cc(-c2cnc(N)c3c(-c4ccc(NS(=O)(=O)C(F)F)c(O[C@@H](C)c5ccc(F)cc5)c4)nn(C)c23)cn1 (stereo partly drawn) [Compound 172, N-(4-{4-amino-1-methyl-7-[1-(1,3,5-trimethylpiperidin-4-yl)-1H-pyrazol-4-yl]-1H-pyrazolo[4,3-c]pyridin-3-yl}-2-[(1S)-1-(4-fluorophenyl)ethoxy]phenyl)-1,1-difluoromethanesulfonamide]
U937 cells
  IC50: > 10 µM
[1]
  IC50: < 0.1 µM

## C[C@H](Oc1cc(-c2nn(C)c3c(-c4cnn(C5CC6CCC(C5)N6CC(F)(F)F)c4)cnc(N)c23)ccc1NS(=O)(=O)C(F)F)c1ccc(F)cc1 (stereo partly drawn) [Compound 153, N-(4-(4-amino-1-methyl-7-(1-(8-(2,2,2-trifluoroethyl)-8-azabicyclo[3.2.1]octan-3-yl)-1H-pyrazol-4-yl)-1H-pyrazolo[4,3-c]pyridin-3-yl)-2-((S)-1-(4-fluorophenyl)ethoxy)phenyl)-1,1-difluoromethanesulfonamide]
U937 cells
  IC50: > 10 µM
[1]
  IC50: 0.1 to 1 µM

## C[C@H](Oc1cc(-c2nn(C)c3c(-c4cnn(C5CCC(C)(C)N(C)C5)c4)cnc(N)c23)ccc1NS(=O)(=O)C(F)F)c1ccc(F)cc1 (stereo partly shown) [Compound 104, N-(4-{4-amino-1-methyl-7-[1-(1,6,6-trimethylpiperidin-3-yl)-1H-pyrazol-4-yl]-1H-pyrazolo[4,3-c]pyridin-3-yl}-2-[(1 S)-1-(4-fluorophenyl)ethoxy]phenyl)-1,1-difluoromethanesulfonamide]
U937 cells
  IC50: > 10 µM
[1]
  IC50: 0.1 to 1 µM

## CC1C(n2cc(-c3cnc(N)c4c(-c5ccc(NS(=O)(=O)C(F)F)c(O[C@@H](C)c6ccc(F)cc6)c5)nn(C)c34)cn2)CN1C (stereo partly drawn) [Compound 147, N-(4-(4-amino-7-(1-(1,2-dimethylazetidin-3-yl)-1H-pyrazol-4-yl)-1-methyl-1H-pyrazolo[4,3-c]pyridin-3-yl)-2-((S)-1-(4-fluorophenyl)ethoxy)phenyl)-1,1-difluoromethanesulfonamide]
U937 cells
  IC50: > 10 µM
[1]
  IC50: 0.1 to 1 µM

## C[C@H](Oc1cc(-c2nn(C)c3c(-c4cnn(C5CCN(C)C(C)(C)C5)c4)cnc(N)c23)ccc1NS(=O)(=O)C(F)F)c1ccc(Cl)cc1 (stereo partly drawn) [Compound 159, N-(4-(4-amino-1-methyl-7-(1-(1,2,2-trimethylpiperidin-4-yl)-1H-pyrazol-4-yl)-1H-pyrazolo[4,3-c]pyridin-3-yl)-2-((S)-1-(4-chlorophenyl)ethoxy)phenyl)-1,1-difluoromethanesulfonamide]
U937 cells
  IC50: > 10 µM
[1]
  IC50: < 0.1 µM

## C[C@H](Oc1cc(-c2nn(C)c3c(-c4cnn(C5CCN(C)CC5)c4)cnc(N)c23)ccc1NS(=O)(=O)C(F)F)c1ccc(F)cc1 [Compound 46, (S)-N-(4-(4-amino-1-methyl-7-(1-(1-methylpiperidin-4-yl)-1H-pyrazol-4-yl)-1H-pyrazolo[4,3-c]pyridin-3-yl)-2-(1-(4-fluorophenyl)ethoxy)phenyl)-1,1-difluoromethanesulfonamide]
U937 cells
  IC50: 1 to 10 µM
[1]
  IC50: 0.1 to 1 µM

## C[C@H](Oc1cc(-c2nn(C)c3c(-c4cnn(C5CCC(F)(F)C5)c4)cnc(N)c23)ccc1NS(=O)(=O)C(F)F)c1ccc(F)cc1 (stereo partly drawn) [Compound 120, N-(4-{4-amino-7-[1-(3,3-difluorocyclopentyl)-1H-pyrazol-4-yl]-1-methyl-1H-pyrazolo[4,3-c]pyridin-3-yl}-2-[(1S)-1-(4-fluorophenyl)ethoxy]phenyl)-1,1-difluoromethanesulfonamide]
U937 cells
  IC50: > 10 µM
[1]
  IC50: 1 to 10 µM

## C[C@H](Oc1cc(-c2nn(C)c3c(-c4cnn(C5(CC#N)COC5)c4)cnc(N)c23)ccc1NS(=O)(=O)C(F)F)c1ccc(F)cc1 [Compound 98, (S)-N-(4-(4-amino-7-(1-(3-(cyanomethyl)oxetan-3-yl)-1H-pyrazol-4-yl)-1-methyl-1H-pyrazolo[4,3-c]pyridin-3-yl)-2-(1-(4-fluorophenyl)ethoxy)phenyl)-1,1-difluoromethanesulfonamide]
U937 cells
  IC50: > 10 µM
[1]
  IC50: 1 to 10 µM

## C[C@H](Oc1cc(-c2nn(C)c3c(-c4cnn(C5CC(C)(C)N(C)C(C)(C)C5)c4)cnc(N)c23)ccc1NS(=O)(=O)C(F)F)c1ccc(F)cc1 [Compound 162, (S)-N-(4-(4-amino-1-methyl-7-(1-(1,2,2,6,6-pentamethylpiperidin-4-yl)-1H-pyrazol-4-yl)-1H-pyrazolo[4,3-c]pyridin-3-yl)-2-(1-(4-fluorophenyl)ethoxy)phenyl)-1,1-difluoromethanesulfonamide]
U937 cells
  IC50: > 10 µM
[1]
  IC50: < 0.1 µM

## C[C@H](Oc1cc(-c2nn(C)c3c(-c4cnn(C5CCN(C)C(C(F)(F)F)C5)c4)cnc(N)c23)ccc1NS(=O)(=O)C(F)F)c1ccc(F)cc1 (stereo partly drawn) [Compound 148, N-(4-(4-amino-1-methyl-7-(1-(1-methyl-2-(trifluoromethyl)piperidin-4-yl)-1H-pyrazol-4-yl)-1H-pyrazolo[4,3-c]pyridin-3-yl)-2-((S)-1-(4-fluorophenyl)ethoxy)phenyl)-1,1-difluoromethanesulfonamide]
U937 cells
  IC50: > 10 µM
[1]
  IC50: 0.1 to 1 µM

## C[C@H](Oc1cc(-c2nn(C)c3c(-c4cnn(C5C[C@@H]6CN(C)C[C@@H]6C5)c4)cnc(N)c23)ccc1NS(=O)(=O)C(F)F)c1ccc(F)cc1 (stereo partly drawn) [Compound 164, N-(4-(4-amino-1-methyl-7-(1-((3aR,6aS)-2-methyloctahydrocyclopenta[c]pyrrol-5-yl)-1H-pyrazol-4-yl)-1H-pyrazolo[4,3-c]pyridin-3-yl)-2-((S)-1-(4-fluorophenyl)ethoxy)phenyl)-1,1-difluoromethanesulfonamide]
U937 cells
  IC50: > 10 µM
[1]
  IC50: < 0.1 µM

## C[C@H](Oc1cc(-c2nn(C)c3c(-c4cnn(C5CCN(C)C6(CC6)C5)c4)cnc(N)c23)ccc1NS(=O)(=O)C(F)F)c1ccc(F)cc1 (single isomer, unassigned) [Compound 170, N-(4-(4-amino-1-methyl-7-(1-((S*)-4-methyl-4-azaspiro[2.5]octan-7-yl)-1H-pyrazol-4-yl)-1H-pyrazolo[4,3-c]pyridin-3-yl)-2-((S)-1-(4-fluorophenyl)ethoxy)phenyl)-1,1-difluoromethanesulfonamide]
U937 cells
  IC50: > 10 µM
[1]
  IC50: < 0.1 µM

## COCC(Oc1cc(-c2nn(C)c3c(-c4cnn(C5CCN(C)CC5)c4)cnc(N)c23)ccc1NS(=O)(=O)C(F)F)c1ccc(F)cc1 (stereo not shown) [Compound 139, N-(4-(4-amino-1-methyl-7-(1-(1-methylpiperidin-4-yl)-1H-pyrazol-4-yl)-1H-pyrazolo[4,3-c]pyridin-3-yl)-2-(1-(4-fluorophenyl)-2-methoxyethoxy)phenyl)-1,1-difluoromethanesulfonamide]
U937 cells
  IC50: > 10 µM
[1]
  IC50: 1 to 10 µM

## C[C@H](Oc1cc(-c2nn(C)c3c(-c4cnn(C5CCN(C)C(C)(C)C5)c4)cnc(N)c23)ccc1NS(=O)(=O)C(F)F)c1ccc(F)cc1 (single isomer, unassigned) [Compound 113]
U937 cells
  IC50: > 10 µM
[1]
  IC50: 0.1 to 1 µM
